Holding throughout (type): biochemical
The target of one test is T1, JAK1 (Homo sapiens, UniProt P23458).
T1 construct: purchased Invitrogen
As to the kind of experiment: JAK1 enzyme inhibition test (LANCE method). To be noted: 1 μM test compound; for inhibition at 1 µM: read-out: JAK1 enzyme inhibitory activity (%, 1 μM). The method, boiled down:
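TR-FRET (LANCE) with ULight-JAK1 peptide (300 nM working solution) and ATP (150 μM working solution) in HEPES pH 7.5, MgCl2, EGTA, DTT buffer; 1 h at room temperature. EDTA stop plus Eu-anti-phosphotyrosine antibody, 665 nm read after 1 h. Inhibition relative to enzyme-free wells as 100%.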
In general terms: In TR-FRET formats the signal depends on donor and acceptor labels being close together.

Another test addresses T2, JAK3 (Homo sapiens, UniProt P52333).
T2 construct: purchased Invitrogen
T2 sequence (P52333 1-1124): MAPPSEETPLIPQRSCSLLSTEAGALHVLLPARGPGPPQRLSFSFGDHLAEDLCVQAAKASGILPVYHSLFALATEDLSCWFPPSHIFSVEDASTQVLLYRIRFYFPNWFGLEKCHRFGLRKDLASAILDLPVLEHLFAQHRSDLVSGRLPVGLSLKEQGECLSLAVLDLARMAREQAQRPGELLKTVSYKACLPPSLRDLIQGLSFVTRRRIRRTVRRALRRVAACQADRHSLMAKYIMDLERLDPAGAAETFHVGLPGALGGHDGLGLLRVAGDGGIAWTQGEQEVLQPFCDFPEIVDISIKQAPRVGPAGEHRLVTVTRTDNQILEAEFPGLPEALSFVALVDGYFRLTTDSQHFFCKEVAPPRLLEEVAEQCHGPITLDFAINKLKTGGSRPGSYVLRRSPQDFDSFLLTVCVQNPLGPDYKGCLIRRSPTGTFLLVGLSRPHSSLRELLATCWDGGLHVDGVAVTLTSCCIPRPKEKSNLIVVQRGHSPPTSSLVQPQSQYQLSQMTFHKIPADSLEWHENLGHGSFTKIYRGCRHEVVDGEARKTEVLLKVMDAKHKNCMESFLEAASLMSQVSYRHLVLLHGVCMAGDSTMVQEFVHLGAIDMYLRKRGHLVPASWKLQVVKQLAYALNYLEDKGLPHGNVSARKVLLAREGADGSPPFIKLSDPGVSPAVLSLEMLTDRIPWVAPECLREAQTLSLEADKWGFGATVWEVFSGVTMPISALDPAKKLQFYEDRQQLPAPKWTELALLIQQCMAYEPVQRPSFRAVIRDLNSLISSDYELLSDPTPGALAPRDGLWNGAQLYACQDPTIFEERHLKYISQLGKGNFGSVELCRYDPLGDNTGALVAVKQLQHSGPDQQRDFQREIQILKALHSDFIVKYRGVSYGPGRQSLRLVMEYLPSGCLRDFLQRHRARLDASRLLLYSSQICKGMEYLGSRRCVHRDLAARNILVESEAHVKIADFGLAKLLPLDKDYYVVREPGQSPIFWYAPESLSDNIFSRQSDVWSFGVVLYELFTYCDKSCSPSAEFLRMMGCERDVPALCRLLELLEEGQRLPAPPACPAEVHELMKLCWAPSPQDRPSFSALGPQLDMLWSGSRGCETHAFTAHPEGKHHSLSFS
As to the kind of experiment: JAK3 enzyme inhibition test (LANCE method). Particulars: 1 μM test compound; for inhibition at 1 µM: read-out: JAK3 enzyme inhibitory activity (%, 1 μM). In outline: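 Recombinant JAK3 (12 ng/mL solution) with ULight-JAK1 peptide (300 nM solution) and ATP (15 μM solution) in HEPES pH 7.5 buffer, 1 h at room temperature. EDTA stop with Eu-anti-phosphotyrosine antibody; TR-FRET at 665 nm. Inhibition relative to enzyme-free wells as 100%.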

Another test has as its target T3, JAK2 (Homo sapiens, UniProt O60674).
T3 construct: purchased Invitrogen
As to the kind of experiment: JAK2 enzyme inhibition test (LANCE method). Particulars: 1 μM test compound; for inhibition at 1 µM: read-out: JAK2 enzyme inhibitory activity (%, 1 μM). The method, boiled down: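 Recombinant JAK2 (6 ng/mL solution) phosphorylated ULight-JAK1 peptide (300 nM solution) with ATP (45 μM solution) in pH 7.5 HEPES/MgCl2/DTT buffer for 1 hr at room temperature. After EDTA stop and europium anti-phosphotyrosine antibody for 1 hr, TR-FRET read at 665 nm; inhibition relative to enzyme-free wells as 100%.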

The next test concerns the target T4, TYK2 (Homo sapiens, UniProt P29597).
T4 construct: purchased Invitrogen
Briefly: TYK2 enzyme inhibition test (LANCE method). Particulars: 1 μM test compound; for inhibition at 1 µM: read-out: TYK2 enzyme inhibitory activity (%, 1 μM). In outline: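 Recombinant TYK2 (375 ng/mL working solution) with ULight-JAK1 peptide (300 nM working solution) and ATP (30 μM working solution) in HEPES pH 7.5 buffer with MgCl2, EGTA, DTT, Tween20, BSA, reacted 1 h at RT. EDTA-stopped, Eu-anti-phosphotyrosine TR-FRET read at 665 nm; inhibition relative to enzyme-free wells as 100%.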

T4 sequence (P29597 whole entry): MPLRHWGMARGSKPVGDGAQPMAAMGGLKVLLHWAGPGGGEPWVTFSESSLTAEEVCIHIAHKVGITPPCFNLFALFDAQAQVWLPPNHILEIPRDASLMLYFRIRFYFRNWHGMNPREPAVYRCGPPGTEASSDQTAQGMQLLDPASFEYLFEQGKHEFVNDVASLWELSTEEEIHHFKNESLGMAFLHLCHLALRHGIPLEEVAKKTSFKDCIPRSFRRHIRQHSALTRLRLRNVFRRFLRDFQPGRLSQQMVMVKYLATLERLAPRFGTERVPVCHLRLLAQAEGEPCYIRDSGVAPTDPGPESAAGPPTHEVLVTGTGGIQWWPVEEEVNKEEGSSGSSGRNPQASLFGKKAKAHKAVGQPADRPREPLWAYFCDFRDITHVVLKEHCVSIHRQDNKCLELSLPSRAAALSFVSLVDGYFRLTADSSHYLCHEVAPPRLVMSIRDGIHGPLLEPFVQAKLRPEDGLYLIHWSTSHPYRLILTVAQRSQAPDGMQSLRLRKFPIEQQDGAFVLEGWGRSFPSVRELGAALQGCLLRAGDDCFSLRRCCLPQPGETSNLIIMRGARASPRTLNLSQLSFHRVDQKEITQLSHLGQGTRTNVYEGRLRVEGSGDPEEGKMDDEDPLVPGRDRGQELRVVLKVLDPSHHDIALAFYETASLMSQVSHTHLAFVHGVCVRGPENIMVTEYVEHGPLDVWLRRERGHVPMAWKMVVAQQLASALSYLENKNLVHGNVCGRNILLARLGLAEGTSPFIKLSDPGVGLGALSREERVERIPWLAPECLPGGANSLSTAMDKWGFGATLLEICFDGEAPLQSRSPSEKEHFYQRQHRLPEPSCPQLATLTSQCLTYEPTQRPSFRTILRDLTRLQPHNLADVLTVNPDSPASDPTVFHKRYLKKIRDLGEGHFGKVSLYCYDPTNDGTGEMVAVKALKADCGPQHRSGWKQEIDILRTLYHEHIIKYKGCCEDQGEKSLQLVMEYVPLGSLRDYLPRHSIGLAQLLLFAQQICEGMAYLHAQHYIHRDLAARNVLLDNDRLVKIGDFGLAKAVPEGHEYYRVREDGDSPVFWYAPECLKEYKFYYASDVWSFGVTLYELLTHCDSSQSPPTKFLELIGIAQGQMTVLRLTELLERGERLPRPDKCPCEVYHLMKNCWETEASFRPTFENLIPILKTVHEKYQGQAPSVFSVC
T1 sequence (P23458 whole entry): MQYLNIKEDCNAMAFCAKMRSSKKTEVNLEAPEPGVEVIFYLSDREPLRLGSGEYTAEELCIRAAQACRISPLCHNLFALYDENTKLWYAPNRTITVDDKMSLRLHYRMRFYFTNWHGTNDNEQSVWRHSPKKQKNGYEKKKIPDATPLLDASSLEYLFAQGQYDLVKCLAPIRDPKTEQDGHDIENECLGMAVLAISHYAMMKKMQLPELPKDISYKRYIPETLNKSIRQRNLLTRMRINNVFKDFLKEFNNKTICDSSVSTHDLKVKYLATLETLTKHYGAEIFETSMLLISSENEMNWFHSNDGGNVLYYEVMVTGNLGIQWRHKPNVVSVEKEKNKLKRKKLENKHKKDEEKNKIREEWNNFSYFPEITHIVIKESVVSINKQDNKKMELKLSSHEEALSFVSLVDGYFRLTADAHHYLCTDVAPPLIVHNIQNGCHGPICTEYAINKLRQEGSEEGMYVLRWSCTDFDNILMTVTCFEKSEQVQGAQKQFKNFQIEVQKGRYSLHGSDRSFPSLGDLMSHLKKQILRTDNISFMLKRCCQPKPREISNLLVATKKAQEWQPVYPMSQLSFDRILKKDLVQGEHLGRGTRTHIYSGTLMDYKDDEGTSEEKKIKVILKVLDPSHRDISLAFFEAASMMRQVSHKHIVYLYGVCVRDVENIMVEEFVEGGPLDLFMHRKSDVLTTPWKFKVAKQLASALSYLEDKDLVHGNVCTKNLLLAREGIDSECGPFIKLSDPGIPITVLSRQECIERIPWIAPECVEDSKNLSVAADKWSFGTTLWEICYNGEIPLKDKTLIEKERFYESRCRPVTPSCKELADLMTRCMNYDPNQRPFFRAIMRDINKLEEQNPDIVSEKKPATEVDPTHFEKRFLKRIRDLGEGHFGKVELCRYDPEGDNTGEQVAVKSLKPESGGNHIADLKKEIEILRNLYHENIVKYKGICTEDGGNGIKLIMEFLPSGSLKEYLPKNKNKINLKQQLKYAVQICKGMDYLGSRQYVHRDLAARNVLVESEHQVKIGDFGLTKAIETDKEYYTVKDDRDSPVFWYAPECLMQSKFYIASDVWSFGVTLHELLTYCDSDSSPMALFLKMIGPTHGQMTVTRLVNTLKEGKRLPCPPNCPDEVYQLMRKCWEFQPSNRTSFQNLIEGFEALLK
T3 sequence (O60674 whole entry): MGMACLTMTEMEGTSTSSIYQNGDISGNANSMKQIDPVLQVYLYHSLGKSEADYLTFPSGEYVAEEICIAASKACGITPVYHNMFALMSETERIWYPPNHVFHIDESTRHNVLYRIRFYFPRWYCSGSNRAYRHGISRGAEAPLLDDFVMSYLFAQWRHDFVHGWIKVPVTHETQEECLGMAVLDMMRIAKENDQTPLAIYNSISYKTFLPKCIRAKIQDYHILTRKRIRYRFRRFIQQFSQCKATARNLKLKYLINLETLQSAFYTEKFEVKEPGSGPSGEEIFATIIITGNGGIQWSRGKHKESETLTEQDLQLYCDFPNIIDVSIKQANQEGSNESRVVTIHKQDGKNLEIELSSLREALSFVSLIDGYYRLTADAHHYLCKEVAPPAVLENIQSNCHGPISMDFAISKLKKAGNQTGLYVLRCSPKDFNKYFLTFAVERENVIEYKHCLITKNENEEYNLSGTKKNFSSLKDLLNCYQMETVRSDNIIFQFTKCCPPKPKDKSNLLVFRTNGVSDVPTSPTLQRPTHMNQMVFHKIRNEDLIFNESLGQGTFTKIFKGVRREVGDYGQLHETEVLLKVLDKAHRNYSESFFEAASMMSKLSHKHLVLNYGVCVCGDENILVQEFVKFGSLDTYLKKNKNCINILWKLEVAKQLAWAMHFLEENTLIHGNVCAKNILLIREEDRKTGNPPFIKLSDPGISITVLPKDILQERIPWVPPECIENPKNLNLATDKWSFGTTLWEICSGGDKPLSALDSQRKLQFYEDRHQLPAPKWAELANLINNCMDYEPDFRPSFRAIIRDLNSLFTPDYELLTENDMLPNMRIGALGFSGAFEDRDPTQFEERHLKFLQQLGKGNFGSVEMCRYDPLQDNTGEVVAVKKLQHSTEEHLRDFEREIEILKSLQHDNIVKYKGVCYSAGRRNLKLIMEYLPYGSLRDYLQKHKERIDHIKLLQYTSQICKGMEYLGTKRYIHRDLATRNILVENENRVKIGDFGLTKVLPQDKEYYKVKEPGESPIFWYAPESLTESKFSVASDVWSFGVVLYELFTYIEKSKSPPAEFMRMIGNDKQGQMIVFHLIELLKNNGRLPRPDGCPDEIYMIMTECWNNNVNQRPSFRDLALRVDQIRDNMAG

With `CC(C)[C@H](C)n1cc(-c2cc(N3CCC(C)(O)C3)n(C)n2)c2[nH]nc(N)c2c1=O` (stereo partly drawn) [Example 33, 3-amino-7-(5-(3-hydroxy-3-methylpyrrolidin-1-yl)-1-methyl-1H-pyrazol-3-yl)-5-((2S)-3-methylbutan-2-yl)-1,5-dihydro-4H-pyrazolo[4,3-c]pyridin-4-one], the inhibition at 1 µM on JAK1 was determined as 96%; at JAK3 it was 99%; on JAK2, 98%; on TYK2 it was 99%.

As to `CC(C)C(n1cc(-c2cc(N3CCOCC3)n(C)n2)c2[nH]nc(N)c2c1=O)C(F)(F)F` (centres unmarked) [Example 82, 3-amino-7-(1-methyl-5-(morpholin-4-yl)-1H-pyrazol-3-yl)-5-(1,1,1-trifluoro-3-methylbutan-2-yl)-1,5-dihydro-4H-pyrazolo[4,3-c]pyridin-4-one], the inhibition at 1 µM came out at 89% at JAK1, 97% at JAK3, 87% on JAK2 and 99% at TYK2.

Take `CC(C)C(C)n1cc(-c2cc(C(C)(C)O)n(C)n2)c2[nH]nc(N)c2c1=O` (centres unmarked) [Example 2, 3-amino-7-(5-(2-hydroxypropan-2-yl)-1-methyl-1H-pyrazol-3-yl)-5-(3-methylbutan-2-yl)-1,5-dihydro-4H-pyrazolo[4,3-c]pyridin-4-one]: the inhibition at 1 µM on JAK1 is 97%; on JAK3, 99%; on JAK2 it was 98%; at TYK2 it was 99%.

With `CC(C)[C@H](C)n1cc(-c2cc(N3CCOCC3)n(C)n2)c2[nH]nc(N)c2c1=O` [Example 41, 3-amino-5-((2S)-3-methylbutan-2-yl)-7-(1-methyl-5-(morpholin-4-yl)-1H-pyrazol-3-yl)-1,5-dihydro-4H-pyrazolo[4,3-c]pyridin-4-one], the inhibition at 1 µM is 97% on JAK1, 100% on JAK3, 99% on JAK2 and 101% on TYK2.

`Cn1nc(-c2cn(C(C3CC3)C3CC3)c(=O)c3c(N)n[nH]c23)cc1N1CCC(F)(F)C1` [Example 170, 3-amino-5-(dicyclopropylmethyl)-7-(5-(3,3-difluoropyrrolidin-1-yl)-1-methyl-1H-pyrazol-3-yl)-1,5-dihydro-4H-pyrazolo[4,3-c]pyridin-4-one]: the inhibition at 1 µM on JAK1 is 99%; on JAK3 it was 99%; on JAK2, 99%; on TYK2, 98%.

As to `CNC[C@H]1CCCN1c1cc(-c2cn(C(C3CC3)C3CC3)c(=O)c3c(N)n[nH]c23)nn1C` [Example 172, 3-amino-5-(dicyclopropylmethyl)-7-(1-methyl-5-((2R)-2-((methylamino)methyl)pyrrolidin-1-yl)-1H-pyrazol-3-yl)-1,5-dihydro-4H-pyrazolo[4,3-c]pyridin-4-one], the inhibition at 1 µM came to 93% on JAK1, 98% on JAK3, 98% at JAK2 and 98% at TYK2.

For `CC1CN(c2cc(-c3cn([C@@H](C)C(C)C)c(=O)c4c(N)n[nH]c34)nn2C)CCO1` (stereo partly drawn) [Example 60, 3-amino-5-((2S)-3-methylbutan-2-yl)-7-(1-methyl-5-(2-methylmorpholin-4-yl)-1H-pyrazol-3-yl)-1,5-dihydro-4H-pyrazolo[4,3-c]pyridin-4-one], on JAK1 (1 µM), the “JAK1 enzyme inhibitory activity (%, 1 μM)” value is 96%. In addition, the “JAK3 enzyme inhibitory activity (%, 1 μM)” value at JAK3 came to 99%. For the same compound, the “JAK2 enzyme inhibitory activity (%, 1 μM)” value on JAK2 turned out to be 98%. Besides, the “TYK2 enzyme inhibitory activity (%, 1 μM)” value on TYK2 (1 µM) came to 99%.

On to `Cn1nc(-c2cn(-c3c(F)cccc3C#N)c(=O)c3c(N)n[nH]c23)cc1C1CCOCC1` [Example 69, 2-(3-amino-7-(1-methyl-5-(tetrahydro-2H-pyran-4-yl)-1H-pyrazol-3-yl)-4-oxo-1,4-dihydro-5H-pyrazolo[4,3-c]pyridin-5-yl)-3-fluorobenzonitrile], for which the inhibition at 1 µM turned out to be 97% on JAK1, 98% at JAK3, 96% on JAK2 and 99% at TYK2.

Regarding `CC(C)C(C(F)F)n1cc(-c2cc(N3CCOCC3)n(C)n2)c2[nH]nc(N)c2c1=O` (centres unmarked) [Example 80, 3-amino-5-(1,1-difluoro-3-methylbutan-2-yl)-7-(1-methyl-5-(morpholin-4-yl)-1H-pyrazol-3-yl)-1,5-dihydro-4H-pyrazolo[4,3-c]pyridin-4-one], the inhibition at 1 µM came out at 89% at JAK1, 98% on JAK3, 91% on JAK2 and 99% on TYK2.

As to `Cn1nc(-c2cn(C(C3CC3)C3CC3)c(=O)c3c(N)n[nH]c23)cc1C(C)(C)O` [Example 174, 3-amino-5-(dicyclopropylmethyl)-7-(5-(2-hydroxypropan-2-yl)-1-methyl-1H-pyrazol-3-yl)-1,5-dihydro-4H-pyrazolo[4,3-c]pyridin-4-one], the inhibition at 1 µM at JAK1 worked out at 99%; on JAK3 it was 99%; on JAK2 it was 98%; at TYK2, 98%.

Take `CC(C)[C@H](C)n1cc(-c2cc(N3CCCCC3=O)n(C)n2)c2[nH]nc(N)c2c1=O` [Example 48, 3-amino-5-((2S)-3-methylbutan-2-yl)-7-(1-methyl-5-(2-oxopiperidin-1-yl)-1H-pyrazol-3-yl)-1,5-dihydro-4H-pyrazolo[4,3-c]pyridin-4-one]: the inhibition at 1 µM is 94% on JAK1, 100% on JAK3, 97% at JAK2 and 99% at TYK2.

Take `COC1(c2cc(-c3cn(-c4c(F)cccc4F)c(=O)c4c(N)n[nH]c34)nn2C)CN(S(=O)(=O)C(C)C)C1` [Example 144, 3-amino-5-(2,6-difluorophenyl)-7-(5-(1-(isopropylsulfonyl)-3-methoxyazetidin-3-yl)-1-methyl-1H-pyrazol-3-yl)-1,5-dihydro-4H-pyrazolo[4,3-c]pyridin-4-one]: the inhibition at 1 µM was determined as 92% at JAK1, 99% on JAK3, 98% at JAK2 and 100% at TYK2.

Consider `Cn1nc(-c2cn(-c3c(F)cccc3F)c(=O)c3c(N)n[nH]c23)cc1N1CCC(C)(C#N)CC1` [Example 127, 1-(3-(3-amino-5-(2,6-difluorophenyl)-4-oxo-4,5-dihydro-1H-pyrazolo[4,3-c]pyridin-7-yl)-1-methyl-1H-pyrazol-5-yl)-4-methylpiperidine-4-carbonitrile], for which the inhibition at 1 µM was 99% on JAK1, 100% at JAK3, 99% at JAK2 and 100% on TYK2.

With `CC(C)[C@H](C)n1cc(-c2cc(N3CCOCC3=O)n(C)n2)c2[nH]nc(N)c2c1=O` [Example 49, 3-amino-5-((2S)-3-methylbutan-2-yl)-7-(1-methyl-5-(3-oxomorpholin-4-yl)-1H-pyrazol-3-yl)-1,5-dihydro-4H-pyrazolo[4,3-c]pyridin-4-one], the inhibition at 1 µM on JAK1 amounted to 96%; at JAK3, 100%; on JAK2 it was 97%; on TYK2 it was 99%.

These data come from patent US9637483B2, “Heterocyclic compound” (TAKEDA PHARMACEUTICAL COMPANY LIMITED, priority 2013, dated 2017).
